From patent publication US9018233B2, “Diaminoaryl derivatives substituted by carbamate and pesticidal composition containing same” (Kyung Nong Corporation, priority 2012, dated 2015)
Like-named read-outs stand apart in the source and are kept apart here.

System: Tobacco Cutworm Moth (Spodoptera litura)
Test: Insecticidal activities against tobacco cutworm moth measured by leaf-dip method
Assay type: in vivo
Settings: 96 h, read-out: percent control value
Procedure: In this test, larvae descended from tobacco cutworm moths (Spodoptera litura), which had been collected in 2009 near Gyeongju area and reared in the laboratory, were used. […] […] The Petri dish was stored under light condition 16:8 hours, 25±1° C. and RH 50-60%, and then the number of larvae survived were counted 24, 48, 72 and 96 hours after the inoculation. As shown in Equations 1 and 2 above, the survival rate was calculated by calibrating the larvae density after treatment with the larvae density before treatment, and the control value is calculated by subtracting the survival rate in the treatment group from the survival rate in the control group and dividing the result by the survival rate in the control group.

[1] = 100 ppm, after 4 days, 2nd instar larvae, leaf-dip

Row | Structure (SMILES) | pest or weed control at 100 ppm [1] [%] | pest or weed control at 100 ppm [%]
1 | CC(C)COC(=O)Nc1cc(Cl)cc(Cl)c1NC(=O)c1cc(Br)nn1-c1ncccc1Cl [Example 4, isobutyl (2-(3-bromo-1-(3-chloropyridin-2-yl)-1H-pyrazole-5-carboxamido)-3,5-dichlorophenyl)carbamate] | ≥ 80 | 
2 | COC(=O)Nc1cc(Cl)cc(C)c1NC(=O)c1cc(Br)nn1-c1ncccc1Cl [Example 11, methyl (2-(3-bromo-1-(3-chloropyridin-2-yl)-1H-pyrazole-5-carboxamido)-5-chloro-3-methylphenyl)carbamate] | ≥ 80 | 
3 | CCOC(=O)Nc1cc(Cl)cc(C)c1NC(=O)c1cc(Br)nn1-c1ncccc1Cl [Example 21, ethyl (2-(3-bromo-1-(3-chloropyridin-2-yl)-1H-pyrazole-5-carboxamido)-5-chloro-3-methylphenyl)carbamate] | ≥ 80 | 
4 | CCCOC(=O)Nc1cc(Cl)cc(C)c1NC(=O)c1cc(Br)nn1-c1ncccc1Cl [Example 22, propyl (2-(3-bromo-1-(3-chloropyridin-2-yl)-1H-pyrazole-5-carboxamido)-5-chloro-3-methylphenyl)carbamate] | ≥ 80 | 
5 | COC(=O)Nc1cc(C#N)cc(C)c1NC(=O)c1cc(Br)nn1-c1ncccc1Cl [Example 33, methyl (2-(3-bromo-1-(3-chloropyridin-2-yl)-1H-pyrazole-5-carboxamido)-5-cyano-3-methylphenyl)carbamate] | ≥ 80 | 
6 | COC(=O)Nc1cc(Br)cc(Br)c1NC(=O)c1cc(Br)nn1-c1ncccc1Cl [Example 40, methyl (3,5-dibromo-2-(3-bromo-1-(3-chloropyridin-2-yl)-1H-pyrazole-5-carboxamido)phenyl)carbamate] | ≥ 80 | 
7 | CC(C)COC(=O)Nc1cc(Br)cc(Br)c1NC(=O)c1cc(Br)nn1-c1ncccc1Cl [Example 41, isobutyl (3,5-dibromo-2-(3-bromo-1-(3-chloropyridin-2-yl)-1H-pyrazole-5-carboxamido)phenyl)carbamate] | ≥ 80 | 
8 | COC(=O)Nc1cc(C(F)(F)F)cc(Cl)c1NC(=O)c1cc(Br)nn1-c1ncccc1Cl [Example 48, methyl (2-(3-bromo-1-(3-chloropyridin-2-yl)-1H-pyrazole-5-carboxamido)-3-chloro-5-(trifluoromethyl)phenyl)carbamate] | ≥ 80 | 
9 | COC(=O)Nc1cc(C(F)(F)F)cc(Br)c1NC(=O)c1cc(Br)nn1-c1ncccc1Cl [Example 51, methyl (3-bromo-2-(3-bromo-1-(3-chloropyridin-2-yl)-1H-pyrazole-5-carboxamido)-5-(trifluoromethyl)phenyl)carbamate] | ≥ 80 | 
10 | COC(=O)Nc1cccc(C)c1NC(=O)c1cc(Br)nn1-c1ncccc1Cl [Example 54, Methyl (2-(3-bromo-1-(3-chloropyridin-2-yl)-1H-pyrazole-5-carboxamido)-3-methylphenyl)carbamate] |  | ≥ 80
11 | COC(=O)Nc1cc([N+](=O)[O-])cc(C)c1NC(=O)c1cc(Br)nn1-c1ncccc1Cl [Example 55, Methyl (2-(3-bromo-1-(3-chloropyridin-2-yl)-1H-pyrazole-5-carboxamido)-3-methyl-5-nitrophenyl)carbamate] | ≥ 80 | 
12 | COC(=O)Nc1cc(C#N)cc(C)c1NC(=O)c1cc(Cl)nn1-c1ncccc1Cl [Example 56, methyl (2-(3-chloro-1-(3-chloropyridin-2-yl)-1H-pyrazole-5-carboxamido)-5-cyano-3-methylphenyl)carbamate] | ≥ 80 | 
13 | COC(=O)Nc1cc(C#N)cc(C)c1NC(=O)c1cc(C#N)nn1-c1ncccc1Cl [Example 57, methyl (2-(1-(3-chloropyridin-2-yl)-3-cyano-1H-pyrazole-5-carboxamido)-5-cyano-3-methylphenyl)carbamate] | ≥ 80 | 
14 | COC(=O)Nc1cc(C#N)cc(C)c1NC(=O)c1cc(OC)nn1-c1ncccc1Cl [Example 58, methyl (2-(1-(3-chloropyridin-2-yl)-3-methoxy-1H-pyrazole-5-carboxamido)-5-cyano-3-methylphenyl)carbamate] | ≥ 80 | 
15 | COC(=O)Nc1cc(C#N)cc(C)c1NC(=O)c1cc(OCC(F)(F)F)nn1-c1ncccc1Cl [Example 60, methyl (2-(3-(2,2,2-trifluoroethoxy)-1-(3-chloropyridin-2-yl)-1H-pyrazole-5-carboxamido)-5-cyano-3-methylphenyl)carbamate] | ≥ 80 | 
16 | COC(=O)Nc1cc(C#N)cc(C)c1NC(=O)c1cc(C(F)(F)F)nn1-c1ncccc1Cl [Example 61, methyl (2-(1-(3-chloropyridin-2-yl)-3-(trifluoromethyl)-1H-pyrazole-5-carboxamido)-5-cyano-3-methylphenyl)carbamate] | ≥ 80 | 
17 | COC(=O)Nc1cc(C#N)cc(C)c1NC(=O)c1cc(C(F)(F)F)nn1-c1ccccc1Cl [Example 62, methyl (2-(1-(2-chlorophenyl)-3-(trifluoromethyl)-1H-pyrazole-5-carboxamido)-5-cyano-3-methylphenyl)carbamate] | ≥ 80 | 
18 | CCOC(=O)Nc1cc(C#N)cc(C)c1NC(=O)c1cc(Br)nn1-c1ncccc1Cl [Example 63, ethyl (2-(3-bromo-1-(3-chloropyridin-2-yl)-1H-pyrazole-5-carboxamido)-5-cyano-3-methylphenyl)carbamate] | ≥ 80 | 
19 | Cc1cc(C#N)cc(NC(=O)OCCCl)c1NC(=O)c1cc(Br)nn1-c1ncccc1Cl [Example 64, 2-chloroethyl (2-(3-bromo-1-(3-chloropyridin-2-yl)-1H-pyrazole-5-carboxamido)-5-cyano-3-methylphenyl)carbamate] | ≥ 80 | 
